For one test, the target named is T1, Endothelin-1 receptor (Homo sapiens, UniProt P25101).
T1 sequence (P25101 whole entry): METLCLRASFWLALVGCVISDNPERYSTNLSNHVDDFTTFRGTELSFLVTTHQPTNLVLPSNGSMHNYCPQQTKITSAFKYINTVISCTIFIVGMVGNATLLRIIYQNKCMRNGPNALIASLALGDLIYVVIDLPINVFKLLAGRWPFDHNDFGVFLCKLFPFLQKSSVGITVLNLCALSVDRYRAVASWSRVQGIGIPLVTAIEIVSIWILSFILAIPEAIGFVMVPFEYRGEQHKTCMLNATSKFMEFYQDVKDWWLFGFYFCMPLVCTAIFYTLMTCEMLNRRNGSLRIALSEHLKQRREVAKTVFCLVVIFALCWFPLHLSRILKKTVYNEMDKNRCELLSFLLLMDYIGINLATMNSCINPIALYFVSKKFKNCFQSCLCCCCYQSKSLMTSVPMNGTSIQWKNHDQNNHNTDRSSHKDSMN
As to the kind of experiment: Tested for binding affinity towards human Endothelin A receptor.

In test [1] the target is T2, Endothelin receptor type B (Homo sapiens, UniProt P24530).
T2 sequence (P24530 whole entry): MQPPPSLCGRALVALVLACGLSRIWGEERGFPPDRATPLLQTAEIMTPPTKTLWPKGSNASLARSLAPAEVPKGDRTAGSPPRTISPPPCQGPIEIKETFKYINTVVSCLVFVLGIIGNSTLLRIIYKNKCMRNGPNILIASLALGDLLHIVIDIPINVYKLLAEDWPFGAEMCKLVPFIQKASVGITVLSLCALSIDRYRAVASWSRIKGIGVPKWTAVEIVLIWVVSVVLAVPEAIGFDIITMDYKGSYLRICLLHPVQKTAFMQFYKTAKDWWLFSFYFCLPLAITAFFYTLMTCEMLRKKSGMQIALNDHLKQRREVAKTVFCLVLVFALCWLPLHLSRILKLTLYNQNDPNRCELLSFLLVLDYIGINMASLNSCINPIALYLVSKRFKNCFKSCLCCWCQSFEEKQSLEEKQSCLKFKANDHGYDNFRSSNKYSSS
Briefly: Tested for binding affinity towards human Endothelin B receptor.

What is called IC50 is the point on the concentration scale where inhibition reaches its midpoint. `C/C=C/C=C/C=C/C(=O)O[C@@H]1C=C2COC(O)[C@]2(O)[C@@]2(C)CCCC(C)(C)C12` (stereo partly drawn): the half-maximal inhibitory concentration (IC50) on Endothelin-1 receptor came to 62 µM.
On to `C/C=C/C=C/C(=O)O[C@@H]1C=C2COC(OC)[C@]2(O)CC1` (stereo partly drawn), for which the 50% inhibitory concentration (IC50) on Endothelin-1 receptor was 8.2 µM; in test [1] it was above 25 µM.
On the same counts, the results for `C/C=C/C=C/C(=O)O[C@@H]1C=C2COC(=O)[C@]2(O)CC1` are 2.6 µM and above 25 µM.
In test [1], `C/C=C/C=C/C(=O)O[C@@H]1C=C2COC(O)[C@]2(O)CC1` (stereo partly drawn) had a half-inhibitory concentration (IC50) above 25 µM.
Turning to `C/C=C/C=C/C(=O)O[C@@H]1C=C2COC(O)[C@]2(O)[C@@]2(C)CCCC(C)(C)C12` (stereo partly drawn), the IC50 is above 250 µM at Endothelin-1 receptor and 148 µM in test [1].
